Read-outs that look alike come from different tables or passages of the source.
How the values were obtained:
[1] = test system: embryonic teratocarcinoma F9 cells; assay: Test of differentiation of embryonic teratocarcinoma F9 cells, antagonism of an agonist retinoid (secretion of the activator of plasminogen, morphology); type: cell-based, mice; details: inhibition by 50% of effect of agonist compound A (10 nM) on secretion of the activator of plasminogen, 3 days incubation, read-out: Antagonist against compound A (10 nM) Test of differentiation of F9 cells IC50
[2] = test system: embryonic teratocarcinoma F9 cells; details: prior art; cited from earlier work

Row | Compound | IC50 ([1]; Mus musculus, F9, 72 h) | other results
1 | COCCOCOc1cc2ccc(-c3ccc(C(=O)O)cc3)cc2cc1C12CC3CC(CC(C3)C1)C2 [Example 3, 4-[7-(1-adamantyl)-6-methoxyethoxymethoxy-2-naphthyl]benzoic acid] | 2 nM | –
2 | 4-[7-(1-adamantyl)-6-carbonylpentyloxy-2-naphthyl]benzoic acid [Example 20] | – | IC50 [1]: 100 nM
3 | O=C(O)c1ccc(-c2ccc3cc(OCc4ccccc4)c(C45CC6CC(CC(C6)C4)C5)cc3c2)cc1 [Example 5, 4-[7-(1-adamantyl)-6-benzyloxy-2-naphthyl]benzoic acid] | 180 nM | –
4 | COCCCCCCOc1cc2ccc(-c3ccc(C(=O)O)cc3)cc2cc1C12CC3CC(CC(C3)C1)C2 [Example 39, 4-[7-(1-adamantyl)-6-methoxyhexyloxy-2-naphthyl]benzoic acid] | 450 nM | –
5 | CC1=C(/C=C/C(C)=C/C=C/C(C)=C/C(=O)O)C(C)(C)CCC1 [retinoic acid] | – | induction of differentiation of embryonic teratocarcinoma cells (F9) in mice [2]: capable of inducing differentiation
6 | O=C(O)c1ccc(-c2ccc3cc(OCc4ccccc4)c(C45CC6CC(CC(C6)C4)C5)cc3c2)cc1O [Example 1, 2-hydroxy-4-[7-(1-adamantyl)-6-benzyloxy-2-naphthyl]benzoic acid] | 5 nM | –
7 | O=C(O)c1ccc(-c2ccc3cc(C(=O)OCc4ccccc4)c(C45CC6CC(CC(C6)C4)C5)cc3c2)cc1 [Example 6, 4-[7-(1-adamantyl)-6-benzyloxycarbonyl-2-naphthyl]benzoic acid] | 500 nM | –
8 | O=C(O)c1ccc(-c2ccc3cc(OCCCCCCCCO)c(C45CC6CC(CC(C6)C4)C5)cc3c2)cc1 [Example 14, 4-[7-(1-adamantyl)-6-hydroxyoctyloxy-2-naphthyl]benzoic acid] | 250 nM | –
